# Laboratory results reported in patent US20070167492A1, “Molluscicidal agents” (priority 2003, published 2007).
# Columns and labels:
# Assay type in all cases: in vivo
# [1] = system: Deroceras reticulatum (grey field slug); assay: Example 1: pot test, treated winter wheat seed with 5 adult slugs per pot, 14 days
# Procedure: (§1) Winter wheat (Kampa race; thousand grain weight of 51 grams) was used in an experiment to test the efficacy of the compositions of the present inventions in relation to known molluscicidal compounds. The seeds were disinfected for soil and germ moulds with 2 ml of Beret Gold (comprising 25 g/l of the fungicide fludioxonil) per kg of seed.
# (§2) Sepiret® was added to all dry disinfections, and is the coating that was added to all agents of which the formulation was not suitable for coating.
# The seeds were sown in earthenware pots with an internal diameter of 20 cm and a height of 18 cm, filled with 7 cm of potting soil (Trio BV, Weesp, The Netherlands) and with a top 2 cm of white quartz sand. A total of 40 seeds was placed in each pot, in a pattern of concentric circles on top of the quartz sand, the germ facing upwards. To each pot a total of 5 adult specimens of the test slug Deroceras reticulatum (grey field slug) were added. The pots were incubated at ±15° C. with a relative humidity of ±90% and light regime of ±12 hours light/12 hours dark, without artificial lighting. The pots were not irrigated overhead. In total, 4 parallel tests were performed for each test.
# Following the addition of the slugs, the number of damaged seeds was counted after 2, 3, 7, 10 and 14 days. The number of plants present (germinated and not eaten or damaged by the slugs) was determined 3, 7, 10 and 14 days after the start of the test. […] The number of dead slugs was counted 2, 3, 7, 10 and 14 days after the start of the test (but not removed). Finally, on days 3, 7, 10 and 14 after the start of the test, the number fecal pellets was counted.
# (§3) The data were statistically analysed by using F-tests (α=0.05) and pair-wise Student-tests.
# [2] = system: Winter wheat (Kampa race) seeds; assay: Seed germination test of treated winter wheat seeds (rolled in paper); conditions: 3x50 seeds, 6 days at 22° C.
# Procedure: as §1, §2
# Table 2 provides an overview of the amounts of diluent water and Sepiret® used for treating the wheat seeds. Table 2 further provides the quality of the coating and the percentages of germinating seeds in a seed germination test. In this test, the percentage of germination of 3×50 seeds, rolled in paper, was determined after 6 days at 22° C. (continuously) and a 16 hours light regime.
# [3] = system: Deroceras reticulatum (grey field slug); assay: Example 2: pot re-test, treated winter wheat seed with 5 adult slugs per pot, 7 days
# Description: Based on the results of the experiment described in Example 1, a selection was made from the various test numbers of that experiment for re-testing, partly to confirm the conclusions of that experiment and to test the unexpected outcome of some test compounds.
# The selection of test numbers (Test No.) used in the present experiment relative to those of the experiment described in Example 1 is shown in Table 7.
# The same seeds as described in Example 1 were sown in earthenware pots with an internal diameter of 20 cm and a height of 18 cm, filled with 7 cm of potting soil (Trio BV, Weesp, The Netherlands) and with a top 2 cm of white quartz sand. A total of 40 winter wheat seeds was placed in each pot, in a pattern of concentric circles on top of the quartz sand, the germ of the seed facing upwards. To each pot a total of 5 adult specimens of the test slug Deroceras reticulatum (grey field slug) were added. The pots were incubated at 18-19° C. with a relative humidity of ±95% and light regime of ±18 hours light/6 hours dark, without artificial lighting. The pots were not irrigated overhead. In total, 4 parallel tests were performed for each test.
# The number of damaged seeds was, the number of plants present (germinated and not eaten or damaged by the slugs), the number of dead slugs and of the number of fecal pellets were determined after 2, 3 and 7 days following the addition of the slugs.
# as §3
# [4] = 2 ml formulated per kg seed, 2 days after sowing
# [5] = 2 ml formulated per kg seed, 3 days after sowing
# [6] = 2 ml formulated per kg seed, 7 days after sowing
# [7] = 2 ml formulated per kg seed, 10 days after sowing
# [8] = 2 ml formulated per kg seed, 14 days after sowing
# [9] = 4 ml formulated per kg seed, 2 days after sowing
# [10] = 4 ml formulated per kg seed, 3 days after sowing
# [11] = 4 ml formulated per kg seed, 7 days after sowing
# [12] = 4 ml formulated per kg seed, 10 days after sowing
# [13] = 4 ml formulated per kg seed, 14 days after sowing
# [14] = 8 ml formulated per kg seed, 2 days after sowing
# [15] = 8 ml formulated per kg seed, 3 days after sowing
# [16] = 8 ml formulated per kg seed, 7 days after sowing
# [17] = 8 ml formulated per kg seed, 10 days after sowing
# [18] = 8 ml formulated per kg seed, 14 days after sowing
# [19] = Example 2, 2 ml formulated per kg seed, 2 days after sowing
# [20] = Example 2, 2 ml formulated per kg seed, 3 days after sowing
# [21] = Example 2, 2 ml formulated per kg seed, 7 days after sowing
# [22] = Example 2, 4 ml formulated per kg seed, 2 days after sowing
# [23] = Example 2, 4 ml formulated per kg seed, 3 days after sowing
# [24] = Example 2, 4 ml formulated per kg seed, 7 days after sowing
# [25] = Example 2, after 2, 3 and 7 days
smiles,measurement,setting,value
"CNC(=O)Oc1cc(C)c(SC)c(C)c1 [methiocarb, 4-methylthio-3,5-xylyl methylcarbamate]",number of utilizable plants after 14 days,[1]; 2 ml formulated per kg seed,15.5
same,percentage of damaged seeds after 14 days,[1]; 2 ml formulated per kg seed,44%
same,Mean number of damaged seeds per pot,[1]; [4],2.0
same,Mean number of dead slugs per pot,[1]; [4],0.3
same,Mean number fecal pellets per pot,[1]; [5],18
same,Mean number of damaged seeds per pot,[1]; [5],5.3
same,Mean number of dead slugs per pot,[1]; [5],0.3
same,Mean number of plants present per pot,[1]; [5],10.5
same,Mean number fecal pellets per pot,[1]; [6],43
same,Mean number of damaged seeds per pot,[1]; [6],19.3
same,Mean number of dead slugs per pot,[1]; [6],0.3
same,Mean number of plants present per pot,[1]; [6],16.5
same,Mean number fecal pellets per pot,[1]; [7],47
same,Mean number of damaged seeds per pot,[1]; [7],17.0
same,Mean number of dead slugs per pot,[1]; [7],0.3
same,Mean number of plants present per pot,[1]; [7],19.8
same,Mean number fecal pellets per pot,[1]; [8],50
same,Mean number of damaged seeds per pot,[1]; [8],17.8
same,Mean number of dead slugs per pot,[1]; [8],0.5
same,Mean number of plants present per pot,[1]; [8],21.3
same,number of utilizable plants after 14 days,[1]; 4 ml formulated per kg seed,19.8
same,percentage of damaged seeds after 14 days,[1]; 4 ml formulated per kg seed,13%
same,Mean number of damaged seeds per pot,[1]; [9],1.3
same,Mean number of dead slugs per pot,[1]; [9],0
same,Mean number fecal pellets per pot,[1]; [10],16
same,Mean number of damaged seeds per pot,[1]; [10],3.3
same,Mean number of dead slugs per pot,[1]; [10],0
same,Mean number of plants present per pot,[1]; [10],7.8
same,Mean number fecal pellets per pot,[1]; [11],34
same,Mean number of damaged seeds per pot,[1]; [11],10.8
same,Mean number of dead slugs per pot,[1]; [11],0.3
same,Mean number of plants present per pot,[1]; [11],22.8
same,Mean number fecal pellets per pot,[1]; [12],35
same,Mean number of damaged seeds per pot,[1]; [12],4.8
same,Mean number of dead slugs per pot,[1]; [12],0.3
same,Mean number of plants present per pot,[1]; [12],30.3
same,Mean number fecal pellets per pot,[1]; [13],36
same,Mean number of damaged seeds per pot,[1]; [13],5.0
same,Mean number of dead slugs per pot,[1]; [13],1.8
same,Mean number of plants present per pot,[1]; [13],29.8
same,number of utilizable plants after 14 days,[1]; 8 ml formulated per kg seed,33.0
same,percentage of damaged seeds after 14 days,[1]; 8 ml formulated per kg seed,8%
same,Mean number of damaged seeds per pot,[1]; [14],1.8
same,Mean number of dead slugs per pot,[1]; [14],0
same,Mean number fecal pellets per pot,[1]; [15],6
same,Mean number of damaged seeds per pot,[1]; [15],2.5
same,Mean number of dead slugs per pot,[1]; [15],0.3
same,Mean number of plants present per pot,[1]; [15],4.3
same,Mean number fecal pellets per pot,[1]; [16],23
same,Mean number of damaged seeds per pot,[1]; [16],4.5
same,Mean number of dead slugs per pot,[1]; [16],0.5
same,Mean number of plants present per pot,[1]; [16],32.0
same,Mean number fecal pellets per pot,[1]; [17],27
same,Mean number of damaged seeds per pot,[1]; [17],3.3
same,Mean number of dead slugs per pot,[1]; [17],1.3
same,Mean number of plants present per pot,[1]; [17],33.8
same,Mean number fecal pellets per pot,[1]; [18],27
same,Mean number of damaged seeds per pot,[1]; [18],3.3
same,Mean number of dead slugs per pot,[1]; [18],1.5
same,Mean number of plants present per pot,[1]; [18],34.8
same,effect on the slug population,[1]; Example 1,little effect on the slug population
same,damaged seeds relative to the untreated pots,"[1]; Example 1, 2, 4 and 8 ml per kg of seed, from day 3 after sowing",significantly less damaged seeds
same,plants present relative to the untreated pots,"[1]; Example 1, 2, 4 or 8 ml per kg of seed, after 3 (only 2 ml), 7, 10 and 14 days",significantly more plants present
same,fecal pellets relative to the untreated seed,"[1]; Example 1, at each dosage and at each observation",significantly less fecal pellets
same,protection / slug controlling effect (conclusion),"[1]; Example 1, winter wheat seed treatment, dosages tested",good protection to both seeds and plants
same,Percentage germinated,[2]; 2 ml formulated per kg seed,61%
same,Percentage germinated,[2]; 4 ml formulated per kg seed,63%
same,Percentage germinated,[2]; 8 ml formulated per kg seed,27%
same,dead slugs observed during the course of the experiment,[3]; Example 2,More dead slugs
same,result of seed treatment against slugs (conclusion),[3]; Example 2,fairly food protection of the seeds against slugs
same,percentage of damaged seeds after 7 days,"[3]; Example 2, 2 ml formulated per kg seed",14%
same,Mean number of damaged seeds per pot,[3]; [19],2.5
same,Mean number of dead slugs per pot,[3]; [19],0.3
same,Mean number of damaged seeds per pot,[3]; [20],4.8
same,Mean number of dead slugs per pot,[3]; [20],0.5
same,Mean number of damaged seeds per pot,[3]; [21],5.5
same,Mean number of dead slugs per pot,[3]; [21],2.3
same,percentage of damaged seeds after 7 days,"[3]; Example 2, 4 ml formulated per kg seed",9%
same,Mean number of damaged seeds per pot,[3]; [22],1.8
same,Mean number of dead slugs per pot,[3]; [22],0
same,Mean number of damaged seeds per pot,[3]; [23],2.0
same,Mean number of dead slugs per pot,[3]; [23],1.8
same,Mean number of damaged seeds per pot,[3]; [24],3.5
same,Mean number of dead slugs per pot,[3]; [24],3.3
same,number of fecal pellets per pot relative to the untreated control,[3]; [25],significant reduction in the number of fecal pellets
same,plants present relative to the untreated seed,[3]; [25],significantly more plants present
same,number of damaged seeds relative to the untreated seed,"[3]; Example 2, two days after the start",significant reduction in the number of damaged seeds
same,Mean number of fecal pellets per pot,"[3]; dosage 2 ml, 2 days",1
same,Mean number of plants present per pot,"[3]; dosage 2 ml, 2 days",9.0
same,Mean number of fecal pellets per pot,"[3]; dosage 2 ml, 3 days",9
same,Mean number of plants present per pot,"[3]; dosage 2 ml, 3 days",22.5
same,Mean number of fecal pellets per pot,"[3]; dosage 2 ml, 7 days",20
same,Mean number of plants present per pot,"[3]; dosage 2 ml, 7 days",34.0
same,number of utilizable plants after 7 days,"[3]; dosage 2 ml, 7 days",26.8
same,Mean number of fecal pellets per pot,"[3]; dosage 4 ml, 2 days",2
same,Mean number of plants present per pot,"[3]; dosage 4 ml, 2 days",28.3
same,Mean number of fecal pellets per pot,"[3]; dosage 4 ml, 3 days",7
same,Mean number of plants present per pot,"[3]; dosage 4 ml, 3 days",33.3
same,Mean number of fecal pellets per pot,"[3]; dosage 4 ml, 7 days",11
same,Mean number of plants present per pot,"[3]; dosage 4 ml, 7 days",34.5
same,number of utilizable plants after 7 days,"[3]; dosage 4 ml, 7 days",32.5
